In patent publication US7312237B2, “Combination of epothilone analogs and chemotherapeutic agents for the treatment of prolilferative diseases” (Bristol-Myers Squibb Co., priority 2001, dated 2007):

Experiments:
[1] = test system: tubulin isolated from calf brain; assay: Tubulin polymerization assay; format: biochemical
[2] = test system: A2780Tax human ovarian carcinoma; details: Expt. 12, IV paclitaxel at its MTD
Description: (§1) The following human tumors were used: A2780 ovarian, A2780Tax ovarian (established from cells obtained from Dr. Antonio Fojo, Medicine Branch, NCI, Bethesda, Md.), HCT116/VM46 colon, Pat-7 ovarian (established from a tumor biopsy provided by Dr. Thomas Hamilton, Fox Chase Cancer Center, Philadelphia, Pa.) from a patient who had developed resistance to TAXOL®). The murine fibrosarcoma M5076 was also employed.
The following tumors were passaged in the indicated host strain of mouse: murine M5076 fibrosarcoma (M5076) in C57Bl/6 mice; human A2780 and Pat-7 ovarian carcinomas, HCT116, HCT116/VM46 and LS174T colon carcinoma, Pat-21 breast carcinoma in nude mice. Tumor passage occurred biweekly for murine tumors and approximately every two to eight weeks for the various human tumor lines. With regard to efficacy testing, M5076 tumors were implanted in (C57Bl/6×DBA/2)F1 hybrid mice, and human tumors were implanted in nude mice. All tumor implants for efficacy testing were subcutaneous (sc). […]
(§2) Antitumor activity was evaluated at the maximum tolerated dose (MTD) which is defined as the dose level immediately […] which excessive toxicity (i.e. more than one death) occurred. […] When death occurs, the day of death was recorded. […]
(§3) To estimate tumor cell kill, the tumor volume doubling time was first calculated with the formula: […]

HCT-116 = assay: In vitro cytotoxicity (MTS assay), HCT-116; format: cell-based; details: Homo sapiens; HCT-116, 72 hour incubation
Description: HCT116 human carcinoma cell lines and HCT116/VM46 cells, a MDR variant, were maintained in McCoy's 5A medium (GIBCO) and 10% heat inactivated fetal bovine serum (GIBCO). A2780 human ovarian carcinoma cells and A2780Tax cells obtained from Dr. Antonio Fojo (NCI, Bethesda, Md.) were maintained in IMEM (GIBCO) and 10% fetal bovine serum (GIBCO).
(§4) The in vitro cytotoxicity was assessed in tumor cells by a tetrazolium-based colorimetric assay which takes advantage of the metabolic conversion of MTS (3-(4,5-dimethylthiazol-2-yl)-5-(3-carboxymethoxyphenyl)-2-(4-sulphenyl)-2H-tetrazolium, inner salt) to a reduced form that absorbs light at 492 nm. Cells were seeded 24 hr prior to drug addition. Following a 72 hour incubation at 37° C. with serially diluted compound, MTS, in combination with the electron coupling agent phenazine methosulfate, was added to the cells. The incubation was continued for 3 hours, then the absorbancy of the medium at 492 nm was measured with a spectrophotometer to obtain the number of surviving cells relative to control populations. The results are expressed as median cytotoxic concentrations (IC50 values).

[3] = test system: Pat-7 human ovarian carcinoma; assay: In vivo antitumor testing, Pat-7 in nude mice
Description: (§5) All tumor implants for efficacy testing were subcutaneous (sc).
(§6) The MTD was frequently equivalent to OD. When death occurs, the day of death was recorded.
(§7) And, Log cell kill=T−C÷(3.32×TVDT)
This tumor model was established from a tumor biopsy of an ovarian cancer patient (Pat-7), who was initially responsive to TAXOL® treatment but ultimately developed resistance to it following nine courses of monotherapy with TAXOL®. Prior to treatment with TAXOL®, Pat-7 also received numerous other chemotherapeutic agents including carboplatin, cytoxan, VP-16, ifosfamide and altretamine. Tumor biopsy was taken following development of TAXOL® resistance.

[4] = test system: A2780 human ovarian carcinoma; assay: In vivo antitumor testing, A2780 in nude rats; details: nude rats, IV paclitaxel
Description: as §6, §7
A2780 grown in nude rats was also utilized.

[5] = test system: M5076 murine fibrosarcoma; assay: In vivo antitumor testing, M5076 murine sarcoma; parameters: species or system mice; details: optimal schedule
Description: The murine fibrosarcoma M5076 was also employed.
The human tumors were maintained in Balb/c nu/nu nude mice. M5076 was maintained in C57BL/6 mice. Tumors were propagated as subcutaneous transplants in the appropriate mouse strain using tumor fragments obtained from donor mice.
as §5, §6, §7

[6] = test system: HCT116/VM46 human colon carcinoma; assay: in vivo
Description: as §1
(§8) The following tumors were passaged in the indicated host strain of mouse: murine M5076 fibrosarcoma (M5076) in C57Bl/6 mice; human A2780 and Pat-7 ovarian carcinomas, HCT116, HCT116/VM46 and LS174T colon carcinoma, Pat-21 breast carcinoma in nude mice. Tumor passage occurred biweekly for murine tumors and approximately every two to eight weeks for the various human tumor lines. With regard to efficacy testing, M5076 tumors were implanted in (C57Bl/6×DBA/2)F1 hybrid mice, and human tumors were implanted in nude mice. All tumor implants for efficacy testing were subcutaneous (sc).
(§9) The required number of animals needed to detect a meaningful response were pooled at the start of the experiment and each was given a subcutaneous implant of a tumor fragment (·50 mg) with a 13-gauge trocar. For treatment of early-stage tumors, the animals were again pooled before distribution to the various treatment and control groups. For treatment of animals with advanced-stage disease, tumors were allowed to grow to the predetermined size window (tumors outside the range were excluded) and animals were evenly distributed to various treatment and control groups. Treatment of each animal was based on individual body weight. Treated animals were checked daily for treatment related toxicity/mortality. Each group of animals was weighed before the initiation of treatment (Wt1) and then again following the last treatment dose (Wt2). The difference in body weight (Wt2−Wt1) provides a measure of treatment-related toxicity.
(§10) Tumor weights (mg) were estimated from the formula: Tumor weight=(length×width^2)÷2
Antitumor activity was evaluated at the maximum tolerated dose (MTD) which is defined as the dose level immediately […] which excessive toxicity (i.e. more than one death) occurred. […] When death occurs, the day of death was recorded.
Tumor response end-point was expressed in terms of tumor growth delay (T-C value), defined as the difference in time (days) required for the treated tumors (T) to reach a predetermined target size compared to those of the control group (C).
To estimate tumor cell kill, the tumor volume doubling time was first calculated with the formula:
TVDT=Median time (days) for control tumors to reach target size−Median time (days) for control tumors to reach half the target size
HCT116/VM46 is an MDR-resistant colon carcinoma developed from the sensitive HCT116 parent line.

[7] = test system: LS174T human colon carcinoma; assay: In vivo antitumor testing, LS174T xenograft; parameters: species or system nude mice; details: Expt. R578, iv paclitaxel 36 mg/kg/inj every 2 days for 5 doses
Description: as §5, §6, §7

[8] = test system: Pat-7 human ovarian carcinoma; assay: In vivo antitumor testing, Pat-7 in nude rats; details: Expt. 15, nude rats, paclitaxel at optimal dose
Description: as §6, §7

Pat-21 breast carcinoma = test system: Pat-21 breast carcinoma
Description: as §8, §9, §10, §2, §3

MIP = assay: In vitro cytotoxicity (MTS assay), MIP; format: cell-based; details: MIP (MDR colon tumor line), 72 hour incubation; read-out: IC50
Description: as §4

[9] = test system: A2780 human ovarian carcinoma; assay: In vivo antitumor testing, A2780 in nude mice
Description: as §5, §6, §7

C/C(=C\c1csc(C)n1)[C@@H]1C[C@@H]2O[C@@H]2CCC[C@H](C)[C@H](O)[C@@H](C)C(=O)C(C)(C)[C@@H](O)CC(=O)O1 [Epothilone A]
Ratio of Polymerization Potency of Analog/Paclitaxel [1]: 0.4

C/C(=C\c1csc(C)n1)[C@@H]1C[C@@H]2O[C@]2(C)CCC[C@H](C)[C@H](O)[C@@H](C)C(=O)C(C)(C)[C@@H](O)CC(=O)O1 [Epothilone B]
Ratio of Polymerization Potency of Analog/Paclitaxel [1]: 0.3

CC(=O)O[C@H]1C(=O)[C@@]2(C)[C@H]([C@H](OC(=O)c3ccccc3)[C@]3(O)C[C@H](OC(=O)[C@H](O)[C@@H](NC(=O)c4ccccc4)c4ccccc4)C(C)=C1C3(C)C)[C@]1(OC(C)=O)CO[C@@H]1C[C@@H]2O [Paclitaxel, reference compound]
Paclitaxel LCK [2]: 0.8
IC50 (HCT-116): 2.1 nM
Paclitaxel LCK ([3]; Expt. 8, IV paclitaxel at optimal dose (24-36 mg/kg/inj) and schedule): 1.3
Paclitaxel (IV) LCK ([3]; Expt. 9, IV paclitaxel at optimal dose (24-36 mg/kg) and schedule): 1.2
Paclitaxel LCK ([3]; Expt. R403, IV paclitaxel at optimal dose (24-36 mg/kg/inj) and schedule): 0.6
cures [4]: 5 of 7
Paclitaxel LCK ([5]; Expt. 159, IV paclitaxel): 0.1
Paclitaxel LCK ([5]; Expt. 162, IV paclitaxel): 0.5
Paclitaxel LCK ([6]; Expt. 32, IV paclitaxel at its MTD): 0.4
Paclitaxel LCK ([6]; Expt. 33, IV paclitaxel at its MTD): 0.7
median LCK of 12 consecutive studies ([6]; paclitaxel at its MTD): 0.35 LCK
Paclitaxel LCK [7]: 2.0
Paclitaxel LCK [8]: 2.2
Paclitaxel cures/total ([8]; listed as PACLITAXEL): (0/6)
Paclitaxel cures/total ([8]; listed as paclitaxel): no cures
Paclitaxel LCK (Pat-21 breast carcinoma; Expt. R667, paclitaxel at MTD of 36 mg/kg/inj): 0.3
MTD (Pat-21 breast carcinoma; paclitaxel, two courses of 3 doses every 4 days): 36 mg/kg/inj
IC50 (MIP): > 112 nM
Paclitaxel LCK ([9]; Expt. 89, IV paclitaxel at optimal dose): 2
Paclitaxel LCK ([9]; Expt. 92, IV paclitaxel at optimal dose): 3.5
